Source: patent US20160083391A1, “TRICYCLIC PIPERAZINE DERIVATIVE” (Sunovion Pharmaceuticals Inc., priority 2014, published 2016)

Test system: PDE1
Assay: In vitro HTRF PDE1 inhibition assay
Type: biochemical
Settings: HTRF cGMP assay, 100 nM cyclic GMP, PDE (1A3, 1B or 1C) with calmodulin, 45 minutes at 37° C.; isoform of the tabulated values not stated
How it was run: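 Activities are given as IC50 bands (<1, 1-10, >10 μM) derived from a 665/615 nm time-resolved FRET readout after d2-cGMP/anti-cGMP cryptate detection. Enzymes PDE1A3, 1B or 1C plus calmodulin were incubated 45 min at 37 °C with 100 nM cGMP, 1% DMSO, CaCl2/MgCl2 Tris buffer pH 7.4.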

| IC50 [µM] | SMILES |
| --- | --- |
| < 1 | COc1ccc(C(=O)N2CCn3c(nc4c(cnn4C4CCCC4)c3=O)C2)cc1 [Compound I-116, 1-Cyclopentyl-8-(4-methoxybenzoyl)-6,7,8,9-tetrahydropyrazino[1,2-a]pyrazolo[3,4-d]pyrimidin-4(1H)-one] |
| > 10 | COc1ccc(CN2CCn3c(nc4c(C5CCCC5)n[nH]c4c3=O)C2)cc1 [Compound I-123, 3-Cyclopentyl-6-(4-methoxybenzyl)-5,6,7,8-tetrahydropyrazino[1,2-a]pyrazolo[4,3-d]pyrimidin-10(1H)-one] |
| 1 to 10 | O=c1c2[nH]nc(C3CCCC3)c2nc2n1CCN(Cc1ccc(Cl)cc1)C2 [Compound I-124, 6-(4-Chlorobenzyl)-3-cyclopentyl-5,6,7,8-tetrahydropyrazino[1,2-a]pyrazolo[4,3-d]pyrimidin-10(1H)-one] |
| > 10 | COc1ccc(CN2CCn3c(nc4c(ncn4C4CCCC4)c3=O)C2)cc1 [Compound I-125, 3-Cyclopentyl-6-(4-methoxybenzyl)-5,6,7,8-tetrahydropyrazino[1,2-a]purin-10(3H)-one] |
| > 10 | O=c1c2ncn(C3CCCC3)c2nc2n1CCN(Cc1ccc(Cl)cc1)C2 [Compound I-126, 6-(4-Chlorobenzyl)-3-cyclopentyl-5,6,7,8-tetrahydropyrazino[1,2-a]purin-10(3H)-one] |
| > 10 | COc1ccc(CN2CCn3c(nc4c(nnn4C4CCCC4)c3=O)C2)cc1 [Compound I-127, 3-Cyclopentyl-6-(4-methoxybenzyl)-5,6,7,8-tetrahydropyrazino[1,2-a][1,2,3]triazolo[4,5-d]pyrimidin-10(3H)-one] |
| > 10 | O=c1c2nnn(C3CCCC3)c2nc2n1CCN(Cc1ccc(Cl)cc1)C2 [Compound I-128, 6-(4-Chlorobenzyl)-3-cyclopentyl-5,6,7,8-tetrahydropyrazino[1,2-a][1,2,3]triazolo[4,5-d]pyrimidin-10(3H)-one] |
| 1 to 10 | COc1ccc(CN2CCn3c(nc4c(C5CCCC5)noc4c3=O)C2)cc1 [Compound I-129, 3-Cyclopentyl-6-(4-methoxybenzyl)-7,8-dihydro-5H-isoxazolo[4,5-d]pyrazino[1,2-a]pyrimidin-10(6H)-one] |
| 1 to 10 | O=c1c2onc(C3CCCC3)c2nc2n1CCN(Cc1ccc(Cl)cc1)C2 [Compound I-130, 6-(4-Chlorobenzyl)-3-cyclopentyl-7,8-dihydro-5H-isoxazolo[4,5-d]pyrazino[1,2-a]pyrimidin-10(6H)-one] |
| < 1 | COc1ccc(CN2CCn3c(nn4c(C5CCCC5)nnc4c3=O)C2)cc1 [Compound I-131, 3-Cyclopentyl-7-(4-methoxybenzyl)-8,9-dihydro-6H-pyrazino[2,1-c][1,2,4]triazolo[3,4-f][1,2,4]triazin-11(7H)-one] |
| < 1 | O=c1c2nnc(C3CCCC3)n2nc2n1CCN(Cc1ccc(Cl)cc1)C2 [Compound I-132, 7-(4-Chlorobenzyl)-3-cyclopentyl-8,9-dihydro-6H-pyrazino[2,1-c][1,2,4]triazolo[3,4-f][1,2,4]triazin-11(7H)-one] |
| < 1 | COc1ccc(CN2CCn3c(nn4c(C5CCCC5)ncc4c3=O)C2)cc1 [Compound I-133, 3-Cyclopentyl-7-(4-methoxybenzyl)-8,9-dihydro-6H-imidazo[5,1-f]pyrazino[2,1-c][1,2,4]triazin-11(7H)-one] |
| < 1 | O=c1c2cnc(C3CCCC3)n2nc2n1CCN(Cc1ccc(Cl)cc1)C2 [Compound I-134, 7-(4-Chlorobenzyl)-3-cyclopentyl-8,9-dihydro-6H-imdazo[5,1-f]pyrazino[2,1-c][1,2,4]triazin-11(7H)-one] |
| < 1 | CC(C)n1ncc2c(=O)n3c(nc21)CN(Cc1cccnc1)CC3 [Compound I-135, 1-Isopropyl-8-(pyridin-3-ylmethyl)-6,7,8,9-tetrahydropyrazino[1,2-a]pyrazolo[3,4-d]pyrimidin-4(1H)-one] |
| 1 to 10 | CC(C)n1ncc2c(=O)n3c(nc21)CN(Cc1ccncc1)CC3 [Compound I-136, 1-Isopropyl-8-(pyridin-4-ylmethyl)-6,7,8,9-tetrahydropyrazino[1,2-a]pyrazolo[3,4-d]pyrimidin-4(1H)-one] |
| 1 to 10 | CC(C)n1ncc2c(=O)n3c(nc21)CN(Cc1cccc(F)c1)CC3 [Compound I-137, 8-(3-Fluorobenzyl)-1-isopropyl-6,7,8,9-tetrahydropyrazino[1,2-a]pyrazolo[3,4-d]pyrimidin-4(1H)-one] |
| > 10 | CC(C)n1ncc2c(=O)n3c(nc21)CN(Cc1ccc(F)cc1)CC3 [Compound I-138, 8-(4-Fluorobenzyl)-1-isopropyl-6,7,8,9-tetrahydropyrazino[1,2-a]pyrazolo[3,4-d]pyrimidin-4(1H)-one] |
| > 10 | COc1cc(CN2CCn3c(nc4c(cnn4C(C)C)c3=O)C2)ccc1F [Compound I-139, 8-(4-Fluoro-3-methoxybenzyl)-1-isopropyl-6,7,8,9-tetrahydropyrazino[1,2-a]pyrazolo[3,4-d]pyrimidin-4(1H)-one] |

| IC50 [µM] | SMILES |
| --- | --- |
| < 1 | COc1ccc(CN2CCn3c(nc4c(cnn4C(C)C)c3=O)C2)cc1F [Compound I-140, 8-(3-Fluoro-4-methoxybenzyl)-1-isopropyl-6,7,8,9-tetrahydropyrazino[1,2-a]pyrazolo[3,4-d]pyrimidin-4(1H)-one] |
| < 1 | CCOc1cccc(N2CCn3c(nc4c(cnn4C(C)C)c3=O)C2)c1 [Compound I-141, 8-(3-Ethoxyphenyl)-1-isopropyl-6,7,8,9-tetrahydropyrazino[1,2-a]pyrazolo[3,4-d]pyrimidin-4(1H)-one] |
| < 1 | CC(C)n1ncc2c(=O)n3c(nc21)CN(c1ccc(F)cc1)CC3 [Compound I-142, 8-(4-Fluorophenyl)-1-isopropyl-6,7,8,9-tetrahydropyrazino[1,2-a]pyrazolo[3,4-d]pyrimidin-4(1H)-one] |
| 1 to 10 | CC(C)n1ncc2c(=O)n3c(nc21)CN(c1cccnc1)CC3 [Compound I-143, 1-Isopropyl-8-(pyridin-3-yl)-6,7,8,9-tetrahydropyrazino[1,2-a]pyrazolo[3,4-d]pyrimidin-4(1H)-one] |
| < 1 | COc1cncc(N2CCn3c(nc4c(cnn4C(C)C)c3=O)C2)c1 [Compound I-144, 1-Isopropyl-8-(5-methoxypyridin-3-yl)-6,7,8,9-tetrahydropyrazino[1,2-a]pyrazolo[3,4-d]pyrimidin-4(1H)-one] |
| < 1 | CC(C)n1ncc2c(=O)n3c(nc21)CN(c1ccncc1)CC3 [Compound I-145, 1-Isopropyl-8-(pyridin-4-yl)-6,7,8,9-tetrahydropyrazino[1,2-a]pyrazolo[3,4-d]pyrimidin-4(1H)-one] |
| 1 to 10 | COc1ccc(CN2CCCn3c(nc4c(cnn4C(C)C)c3=O)C2)cc1 [Compound I-156, 1-Isopropyl-9-(4-methoxybenzyl)-7,8,9,10-tetrahydro-1H-pyrazolo[3′,4′:4,5]pyrimido[1,2-a][1,4]diazepin-4(6H)-one] |
| > 10 | COc1ccc(CN2CCc3nc4c(cnn4C(C)C)c(=O)n3CC2)cc1 [Compound I-157, 1-Isopropyl-8-(4-methoxybenzyl)-7,8,9,10-tetrahydro-1H-pyrazolo[3′,4′:4,5]pyrimido[1,2-d][1,4]diazepin-4(6H)-one] |
| 1 to 10 | COCCn1ncc2c(=O)n3c(nc21)CN(Cc1ccc(OC)cc1)CC3 [Compound I-158, 8-(4-Methoxybenzyl)-1-(2-methoxyethyl)-6,7,8,9-tetrahydropyrazino[1,2-a]pyrazolo[3,4-d]pyrimidin-4(1H)-one] |
| 1 to 10 | COCCn1ncc2c(=O)n3c(nc21)CN(Cc1ccc(Cl)cc1)CC3 [Compound I-159, 8-(4-Chlorobenzyl)-1-(2-methoxyethyl)-6,7,8,9-tetrahydropyrazino[1,2-a]pyrazolo[3,4-d]pyrimidin-4(1H)-one] |
| > 10 | COCCn1ncc2c(=O)n3c(nc21)CN(Cc1ccc(Cl)c(Cl)c1)CC3 [Compound I-160, 8-(3,4-Dichlorobenzyl)-1-(2-methoxyethyl)-6,7,8,9-tetrahydropyrazino[1,2-a]pyrazolo[3,4-d]pyrimidin-4(1H)-one] |
| > 10 | COCCn1ncc2c(=O)n3c(nc21)CN(Cc1cccc(OC)c1)CC3 [Compound I-161, 8-(3-Methoxybenzyl)-1-(2-methoxyethyl)-6,7,8,9-tetrahydropyrazino[1,2-a]pyrazolo[3,4-d]pyrimidin-4(1H)-one] |
| 1 to 10 | COCCn1ncc2c(=O)n3c(nc21)CN(Cc1cccc(Cl)c1)CC3 [Compound I-162, 8-(3-Chlorobenzyl)-1-(2-methoxyethyl)-6,7,8,9-tetrahydropyrazino[1,2-a]pyrazolo[3,4-d]pyrimidin-4(1H)-one] |
| > 10 | COCCn1ncc2c(=O)n3c(nc21)CN(Cc1ccc2c(c1)OCO2)CC3 [Compound I-163, 8-(Benzo[d][1.3]dioxol-5-ylmethyl)-1-(2-methoxyethyl)-6,7,8,9-tetrahydropyrazino[1,2-a]pyrazolo[3,4-d]pyrimidin-4(1H)-one] |
| 1 to 10 | CCCn1ncc2c(=O)n3c(nc21)CN(Cc1ccc(OC)cc1)CC3 [Compound I-164, 8-(4-Methoxybenzyl)-1-propyl-6,7,8,9-tetrahydropyrazino[1,2-a]pyrazolo[3,4-d]pyrimidin-4(1H)-one] |
| 1 to 10 | CCCn1ncc2c(=O)n3c(nc21)CN(Cc1ccc(Cl)c(Cl)c1)CC3 [Compound I-165, 8-(3,4-Dichlorobenzyl)-1-propyl-6,7,8,9-tetrahydropyrazino[1,2-a]pyrazolo[3,4-d]pyrimidin-4(1H)-one] |
| 1 to 10 | CCCn1ncc2c(=O)n3c(nc21)CN(Cc1cccc(Cl)c1)CC3 [Compound I-166, 8-(3-Chlorobenzyl)-1-propyl-6,7,8,9-tetrahydropyrazino[1,2-a]pyrazolo[3,4-d]pyrimidin-4(1H)-one] |
| < 1 | CCCn1ncc2c(=O)n3c(nc21)CN(c1ccc(Cl)cc1)CC3 [Compound I-167, 8-(4-Chlorophenyl)-1-propyl-6,7,8,9-tetrahydropyrazino[1,2-a]pyrazolo[3,4-d]pyrimidin-4(1H)-one] |
